Literature values, collected in US20250241904A1, “COMPOSITION AND METHOD FOR PREVENTION AND TREATMENT OF CUTANEOUS RADIATION INJURY” (Rythera Therapeutics, Inc., priority 2022, published 2025).

How the values were obtained:
[1] = tested on: mice; conditions: topical
[2] = tested on: radiation dermatitis
[3] = tested on: radiation proctopathy or proctitis; conditions: in vivo

Row | Compound | treating radiation proctopathy or proctitis [3] | other results
1 | CN[C@H]1CC[C@@H](c2ccc(Cl)c(Cl)c2)c2ccccc21 [sertraline] |  | itch-evoked scratching [1]: significant itch-evoked scratching
2 | O=C1O[C@H]([C@@H](O)CO)C(O)=C1O [Vitamin C] |  | results of irradiated breast tissue ([2]; in vivo): without improvement
3 | NCCCNCCSP(=O)(O)O [amifostine] |  | dermato-cytoprotective effects ([2]; retrospective analysis): significant dermato-cytoprotective effects
4 | Sucralfate | ineffective | 
5 | Nc1ccc(O)c(C(=O)O)c1 [5-ASA, 5-aminosalicylic acid] | unsuccessful | 
6 | O=[N+]([O-])OCC(CO[N+](=O)[O-])O[N+](=O)[O-] [nitroglycerin] | ineffective | 
